In ChEMBL document CHEMBL3885861, “Open TG-GATES”:

Species on record: Rattus norvegicus
Experiment: Open TG-GATES - Regimen: Daily Repeat
Format: toxicity, organism-based, Sprague-Dawley
Design: regimen Daily Repeat, gender Male, age 6 weeks
Details: in vivo, po, 3 mg/kg, […], route gavage, dose level Low; for KIDNEY_L / KIDNEY_R / KIDNEY_TOTAL: tissue Kidney; for LIVER: tissue Liver; for A/G / ALP / ALT / AST / BUN / CRE / Ca / Cl / DBIL / GLC / IP / K / LDH / Na / PL / RALB / TBIL / TC / TG / TP / gamma-GTP: tissue Plasma

## Nc1c2c(nc3ccccc13)CCCC2 [TACRINE]
Tissue Blood, time 28 day
  Lym: 84%
  MCH: 20.1 pg
  MCHC: 36.5%
  MCV: 55.2 fL
  Mono: 1.6%
  Neu: 12.6%
  PT: 16.3 s
  Plat: 99.5 x10_4/uL
  RBC: 776.2 x10_4/ul
  Ret: 2.5%
  WBC: 118.7 x10_2/uL
Time 7 day
  KIDNEY_L: 1 g
  KIDNEY_R: 1.1 g
  KIDNEY_TOTAL: 2.1 g
  LIVER: 11 g
  A/G: 1.2
  ALP: 1691 IU/L
  ALT: 37.2 IU/L
  AST: 68.2 IU/L
  BUN: 18.6 mg/dL
  CRE: 0.2 mg/dL
  Ca: 10.7 mg/dL
  Cl: 108 meq/L
  DBIL: 0 mg/dL
  GLC: 187.8 mg/dL
  IP: 7.4 mg/dL
  K: 4.1 meq/L
  LDH: 156.8 IU/L
  Na: 142.6 meq/L
  PL: 158 mg/dL
  RALB: 3.1 g/dL
  TBIL: 0.028 mg/dL
  TC: 81.6 mg/dL
  TG: 101.2 mg/dL
  TP: 5.7 g/dL
  gamma-GTP: 1.6 IU/L
Time 14 day
  KIDNEY_L: 1.2 g
  KIDNEY_R: 1.2 g
  KIDNEY_TOTAL: 2.4 g
  LIVER: 13.3 g
  A/G: 1.2
  ALP: 1333.2 IU/L
  ALT: 39.2 IU/L
  AST: 65.2 IU/L
  BUN: 18.2 mg/dL
  CRE: 0.2 mg/dL
  Ca: 10.8 mg/dL
  Cl: 107.4 meq/L
  DBIL: 0 mg/dL
  GLC: 191.6 mg/dL
  IP: 6.5 mg/dL
  K: 4.2 meq/L
  LDH: 164 IU/L
  Na: 142 meq/L
  PL: 153 mg/dL
  RALB: 3.2 g/dL
  TBIL: 0.018 mg/dL
  TC: 75.6 mg/dL
  TG: 121.4 mg/dL
  TP: 5.9 g/dL
  gamma-GTP: 1.8 IU/L
Time 28 day
  KIDNEY_L: 1.3 g
  KIDNEY_R: 1.2 g
  KIDNEY_TOTAL: 2.5 g
  LIVER: 13.9 g
  A/G: 1.1
  ALP: 1169.6 IU/L
  ALT: 38.2 IU/L
  AST: 67.6 IU/L
  BUN: 18.8 mg/dL
  CRE: 0.2 mg/dL
  Ca: 10.3 mg/dL
  Cl: 107.6 meq/L
  DBIL: 0 mg/dL
  GLC: 190.6 mg/dL
  IP: 5.9 mg/dL
  K: 3.9 meq/L
  LDH: 137 IU/L
  Na: 142.6 meq/L
  PL: 140 mg/dL
  RALB: 3.2 g/dL
  TBIL: 0.004 mg/dL
  TC: 71.8 mg/dL
  TG: 98.6 mg/dL
  TP: 6 g/dL
  gamma-GTP: 1 IU/L
